# Reference: ChEMBL document CHEMBL1135530, “Selective alpha4beta7 integrin antagonists and their potential as antiinflammatory agents” (J Med Chem, 2002)
# Assay: Selectivity is the ratio of inhibitory concentrations at alpha4-beta1 integrin to alpha4-beta7 integrin
row,SMILES,Ratio
1,CC(C)C[C@H]1NC(=O)[C@H]([C@@H](C)O)NC(=O)[C@@H](CC(=O)O)NC(=O)[C@H](CO)NC(=O)[C@@H](Cc2c[nH]cn2)NC(=O)[C@H](N)CSSC[C@H](C(N)=O)NC1=O,2.8
2,CC(C)C[C@H]1NC(=O)[C@H]([C@@H](C)O)NC(=O)[C@@H](CC(N)=O)NC(=O)[C@H](CO)NC(=O)[C@@H](CCCN=C(N)N)NC(=O)[C@H](N)CSSC[C@H](C(=O)O)NC1=O,0.06
3,CC(C)C[C@@H]1NC(=O)[C@@H](CCCN=C(N)N)NC(=O)[C@H](N)CSSC[C@H](C(N)=O)NC(=O)[C@@H](CC(C)C)NC(=O)[C@H]([C@@H](C)O)NC(=O)[C@@H](CC(=O)O)NC1=O,0.42
4,CSCC[C@@H]1NC(=O)[C@@H](CCCN=C(N)N)NC(=O)[C@H](N)CSSC[C@H](C(N)=O)NC(=O)[C@@H](CC(C)C)NC(=O)[C@H]([C@@H](C)O)NC(=O)[C@@H](CC(=O)O)NC1=O,1.5

# Further lines, results first:
row,Ratio,SMILES
1,14,CC[C@H](C)[C@H]1NC(=O)[C@H]([C@@H](C)O)NC(=O)[C@@H](CC(=O)O)NC(=O)[C@H](CO)NC(=O)[C@@H](CCCN=C(N)N)NC(=O)[C@H](N)CSSC[C@H](C(N)=O)NC1=O
2,0.9,C[C@@H](O)[C@@H]1NC(=O)[C@@H](CC(=O)O)NC(=O)[C@H](CO)NC(=O)[C@@H](CCCN=C(N)N)NC(=O)[C@H](N)CSSC[C@H](C(N)=O)NC(=O)[C@H]2CCCN2C1=O
3,48,CC(C)C[C@H]1NC(=O)[C@H](CO)NC(=O)[C@@H](CC(=O)O)NC(=O)[C@H](CO)NC(=O)[C@@H](CCCN=C(N)N)NC(=O)[C@H](N)CSSC[C@H](C(N)=O)NC1=O
4,15.5,CC(C)C[C@H]1NC(=O)[C@H](C(C)C)NC(=O)[C@@H](CC(=O)O)NC(=O)[C@H](CO)NC(=O)[C@@H](CCCN=C(N)N)NC(=O)[C@H](N)CSSC[C@H](C(N)=O)NC1=O
